Columns and labels:
[1] = system: mice under chronic mild stress; experiment: Elevated plus maze test, compound given at the same time as stress; type: in vivo; settings: 20, 100 and 500 μg/kg intraperitoneally with stress, 3 week and 1 week groups
Description: Mice under established chronic mild stress (hereinafter referred to as “stress”) were used for a depression and anxiety disorder-like model animal. Stress was applied as follows. 7-week-old male ddY strain mice fed in one cage for 4 mice were used and first subjected to forced swimming for 15 minutes. Then, the mice were fed in a sloped cage for 2 days, and then rested in a normal cage for 1 day. Then, the mice were fed in a dirt cage moisturized with 200 mL of water for 1 day and then rested in a normal cage for 1 day. Then, the mice were fed in a rotational cage that rotated at 180 rpm for 1 day, and then rested in a normal cage for 1 day. […] For 0 μg/kg administration examples of controls, a phosphoric acid buffer containing 0.1% DMSO (controls were expressed as “PBS” or “0 μg/kg” in the figure shown below) was administered in an amount of 0.25 mL to each of a stressed example and a non-stressed example. […]
In this test, an anxiety level can be evaluated from the time for being the open arm, and a behavior amount can be evaluated from the number of times of entering the closed arm. From the evaluations, when a mouse has an anxiety symptom (condition), the time for being in the open arm […], and thus, a level of the anxiety symptom (condition) can be evaluated from the length of the time. […]

[2] = Measurement of weights of mice before and after stress; type: in vivo; settings: 3 weeks with stress
Text: A weight of a mouse before stress was subtracted from the weight of the mouse immediately after administering the compound 8 as well as stress for 3 weeks to obtain a weight gap (g).

[3] = system: mRNAs of BDNF, NT-3, NGF and GR; experiment: mRNA expression of neurotrophic factors and glucocorticoid receptor in cortex of frontal lobe and hippocampus; type: in vivo, mice; settings: 24 hours after 3 weeks of stress with compound 8, RT-PCR relative to β actin
Description: mRNA expressions of a brain-derived neurotrophic factor (hereinafter expressed as “BDNF”), neurotrophin-3 (hereinafter expressed as “NT-3”), a nervous growth factor (hereinafter expressed as “NGF”) and a glucocorticoid receptor (hereinafter expressed as “GR”) in a cortex of frontal lobe and a hippocampus of a mouse after stress were examined as follows. After 24 hours from completion of stress for 3 weeks in the same method as described in Example 2, mice administered with the compound 8 in each of the amounts of 0, 20, 100 and 500 μg/kg, at the same time as stress, and non-stressed mice administered with only a phosphoric acid buffer containing 0.1% DMSO were sacrificed and the cortexes of frontal lobes and hippocampi were excised respectively, and thereto were added TriZol. […]
The obtained precipitate was washed with 70% ethanol, dried and then dissolved in TE to form a total RNA sample. […] The fluorescence intensity of the band was read with a densitometer to digitalize and the obtained value was divided with a fluorescence intensity of a band of RT-PCR of β actin mRNA of an internal standard, which has been found separately, and a graph was formed assuming that the band value of a non-stressed mouse/β actin band value was 1.0. […]

[4] = Measurement of weights of mice after completion of stress; type: in vivo; settings: 500 μg/kg for 1 week after completion of stress
Text: A weight of a mouse before stress was subtracted from of the weight of the mouse immediately after completion of stress for 3 weeks without administering the compound 8 and the weight of the mouse after administering the compound 8 for 1 week after completion of stress, respectively, to obtain weight gaps (g). FIGS. 29 and 30 show the results. Although doses are described in FIG. 29, the compound 8 was not administered as described above, and mice corresponding to each of the administration groups administered with the compound 8 for 1 week after completion of stress are only shown.

With `CCCCCCC/C=C/C(=O)OCC` [Compound 8, trans-2-decenoic acid ethyl ester] the “time for being in open arm, stressed vs non-stressed example” value [1] was “no significant difference”, the “number of times of entering closed arm (behavior amount)” value ([1]; vs control (PBS) and stressed vs non-stressed) was “no significant difference” and the “weight gap, stressed vs non-stressed example” value ([2]; 500 μg/kg administration group) was “no significant difference”. The “ratio of weight decrease in stressed examples compared to control (PBS)” value ([2]; compound 8 administration groups) was “less”, the “expression of mRNAs of BDNF, NT-3, NGF and GR” value [3] was “returned to the level of non-stressed examples” and the “weight gap, stressed vs non-stressed example” value [4] was “no significant difference”.
